{"source": "patent US8034831B2", "about": "“Methods for the treatment and management of myeloproliferative diseases using 4-(amino)-2-(2,6-Dioxo(3-piperidyl)-isoindoline-1,3-dione in combination with other therapies” (Celgene Corporation, priority 2002, dated 2011)", "test_system": "myeloproliferative diseases", "assay": "Treatment of patients with myeloproliferative diseases", "type": "in vivo, human", "conditions": "for clinical outcome of therapy (spleen, blood counts, constitutional symptoms): therapy with the JAK or HDAC inhibitor, patients", "description": "4-(Amino)-2-(2,6-dioxo(3-piperidyl))-isoindoline-1,3-dione (Pomalidomide or Actimid™) is orally administered to patients with myeloproliferative diseases in an amount of 0.1 to 10 mg per day in combination with prednisone, JAK1 inhibitor (e.g., INCB018424), JAK2 inhibitor (e.g., SB11518, XL019, TG101348, and INCB018424), FLT3 inhibitor (e.g., TG101348), BCL2 inhibitor (e.g., GX15-070MS) and/or HDAC inhibitor (e.g., ITF2357)."}
{"smiles": "CCN(CC)Cc1ccc2cc(COC(=O)Nc3ccc(C(=O)NO)cc3)ccc2c1", "note": "[ITF2357]", "values": [{"measurement": "clinical outcome of therapy (spleen, blood counts, constitutional symptoms)", "result": "improvement in constitutional symptoms, spleen size and some hematologic responses"}]}
{"smiles": "N#CC[C@H](C1CCCC1)n1cc(-c2ncnc3[nH]ccc23)cn1", "note": "[INCB018424]", "values": [{"measurement": "clinical outcome of therapy (spleen, blood counts, constitutional symptoms)", "result": "dramatic spleen shrinkage and improvement in constitutional symptoms"}]}
{"smiles": "O=C(Nc1ccc(-c2ccnc(Nc3ccc(N4CCOCC4)cc3)n2)cc1)C1CCCN1", "note": "(stereo not shown) [XL019]", "values": [{"measurement": "clinical outcome of therapy (spleen, blood counts, constitutional symptoms)", "result": "reductions in splenomegaly and leukocytosis, stabilization of hemoglobin counts, improvements in blast counts, and resolution or improvement in generalized constitutional symptoms"}]}
{"smiles": "Nc1cccc2c1C(=O)N(C1CCC(=O)NC1=O)C2=O", "note": "(stereo not shown) [4-(Amino)-2-(2,6-dioxo(3-piperidyl))-isoindoline-1,3-dione]", "values": [{"measurement": "efficacy in treating myeloproliferative diseases", "setting": "oral, 0.1 to 10 mg per day, in combination with prednisone, JAK1, JAK2, FLT3, BCL2 and/or HDAC inhibitor", "result": "effective in treating myeloproliferative diseases"}]}
